How the values were obtained:
[1] = system: human subject suffering from osteoarthritis; assay: Example B: oral capsule treatment of a subject with osteoarthritis; format: in vivo; settings: capsule with 70 mg compound daily for 5 years, 90 kg human
Method: A capsule for oral administration, according to the present invention, is made comprising:
A human subject weighing 90 kg (198 lbs.), suffering from osteoarthritis, is treated by a method of this invention. Specifically, for 5 years, the above capsule, which contains 70 mg of the compound of Example 4, is administered daily to said subject.

[2] = system: human subject suffering from rheumatoid arthritis; assay: Example A: oral tablet treatment of a subject with rheumatoid arthritis; format: in vivo; settings: tablet with 15 mg compound, three tablets per day orally for 2 years, 60 kg human
Method: A tablet composition for oral administration, according to the present invention, is made comprising:
A human subject weighing 60 kg (132 lbs), suffering from rheumatoid arthritis, is treated by a method of this invention. Specifically, for 2 years, a regimen of three tablets per day is administered orally to said subject.

CCS[C@H](c1ccccc1)[C@@H](NS(=O)(=O)c1ccc(-c2ccc(F)cc2)cc1)C(=O)O [Example 4, (2S,3R)-3-Ethylsulfanyl-2-(4′-fluoro-biphenyl-4-sulfonylamino)-3-phenyl-propionic Acid]
erosion/fibrillation of the articular cartilage via x-ray, arthroscopy and/or MRI [1]: no further advancement of erosion/fibrillation of the articular cartilage

COc1ccc(-c2ccc(S(=O)(=O)N[C@@H](C(=O)O)[C@H](OCc3ccc(C)cc3)c3nccs3)cc2)cc1 [Example 1, (2R,3S)-2-(4′ -Methoxy-biphenyl-4-sulfonylamino)-3-(4-methyl-benzyloxy)-3-thiazol-2-yl-propionic Acid]
inflammation, mobility and pain at the end of the treatment period [2]: reduced inflammation and improved mobility without concomitant pain
